Patent publication US20250179059A1 (The Regents of the University of California, priority 2021, published 2025)
pIC50: −log10 of the molar value. Where two headings read alike, the source gives them in different places.

Tests used:
[1] = molecular target: T1, human BRD4 bromodomain II (Homo sapiens, UniProt O60885); assay: Bromodomain binding assay (AlphaScreen), BRD4 BDII
T1 construct: human BRD4 bromodomain II [based on Genbank NM_058243, residues 349-460]; host or cells: E. coli
Summary of the method: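 Tagged BRD4 BDI or BDII constructs, expressed in E. coli, competed against a K5/K8/K12/K16-acetylated biotin-H4 peptide. Proximity signal between bead pairs after room-temperature incubations gave concentration-response curves, from which IC50 was derived.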

[2] = system: human SKM-1 acute myeloid leukemia cells; assay: SKM-1 antiproliferation cell-based assay (ATPlite); details: Homo sapiens
Summary of the method: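 Log-phase cells in RPMI 1640/15% FBS were seeded at 34722 cells/mL and exposed for 4 days to nine-concentration DMSO serial dilutions in triplicate. Viability was read as ATP luminescence (ATPlite 1step), and IC50 values came from variable-slope non-linear regression.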

[3] = AlphaScreen assay, Table C2, read-out: BRD4 BDII IC50
[4] = SKM-1, 96 h, SKM-1 antiproliferation assay, 4 days, Table C2
[5] = BRD4 BDII AlphaScreen assay, read-out: BRD4 BD2 IC50
[6] = SKM-1, SKM-1 antiproliferation assay

Row | Compound | pIC50 [1, 3] | GI50 [2, 4] [nM] | pIC50 [1, 5] | GI50 [2, 6] [nM]
1 | Cc1ccc(-c2cc(F)cc(-c3ccc(-n4ccn(C)c4=O)c(Cl)c3)c2O)cc1N1CC(O)(CO)C1 [Example 841, 1-(3-chloro-5′-fluoro-2′-hydroxy-3″-(3-hydroxy-3-(hydroxymethyl)azetidin-1-yl)-4″-methyl-[1,1′:3′,1″-terphenyl]-4-yl)-3-methyl-1H-imidazol-2(3H)-one] | 8.00 to 9.00 | 30 to 300 | – | –
2 | [2H]C([2H])([2H])n1ccn(-c2ccc(-c3cc(F)cc(-c4ccnc(N5CC[C@H](NC)C5)c4)c3O)cc2Cl)c1=O [Example 466, (S)-1-(3-chloro-5′-fluoro-2′-hydroxy-3′-(2-(3-(methylamino)pyrrolidin-1-yl)pyridin-4-yl)-[1,1′-biphenyl]-4-yl)-3-(deuteromethyl)-1H-imidazol-2(3H)-one] | 9.00 to 11.00 | 0.3 to 30 | – | –
3 | Cn1ccn(-c2ccc(-c3cc(F)cc(-c4ccnc(N5CC6CCC6(N)C5)c4)c3O)cc2Cl)c1=O (centres unmarked) [Example 806, 1-(3′-(2-(1-amino-3-azabicyclo[3.2.0]heptan-3-yl)pyridin-4-yl)-3-chloro-5′-fluoro-2′-hydroxy-[1,1′-biphenyl]-4-yl)-3-methyl-1H-imidazol-2(3H)-one] | 8.00 to 9.00 | 0.3 to 30 | – | –
4 | Cc1cc(-c2cc(F)cc(-c3cccc(N4CCN(C(C)(C)C)CC4)c3)c2O)ccc1-n1ccn(C)c1=O [Example 949, 1-(3″-(4-(tert-butyl)piperazin-1-yl)-5′-fluoro-2′-hydroxy-3-methyl-[1,1′:3′,1″-terphenyl]-4-yl)-3-methyl-1,3-dihydro-2H-imidazol-2-one] | – | – | 8.00 to 9.00 | 0.3 to 30
5 | Cn1cc(-c2cc(F)cc(-c3ccc(-n4ccn(C)c4=O)c(Cl)c3)c2O)cc(N2CCC[C@H](N)C2)c1=O [Example 425, (S)-3-(3-aminopiperidin-1-yl)-5-(3′-chloro-5-fluoro-2-hydroxy-4′-(3-methyl-2-oxo-2,3-dihydro-1H-imidazol-1-yl)-[1,1′-biphenyl]-3-yl)-1-methylpyridin-2(1H)-one] | 9.00 to 11.00 | 30 to 300 | – | –
6 | Cc1cc(-c2ccc(-n3ccn(C)c3=O)c(Cl)c2)c(O)c(-c2cc(F)cc(N3CCN(C(C)(C)C)CC3)c2)n1 [Example 1014, 1-(4-(2-(3-(4-(tert-butyl)piperazin-1-yl)-5-fluorophenyl)-3-hydroxy-6-methylpyridin-4-yl)-2-chlorophenyl)-3-methyl-1H-imidazol-2(3H)-one] | – | – | 9.00 to 11.00 | 0.3 to 30
7 | Cn1ccn(-c2ccc(-c3cc(F)cc(-c4ccnc(N5C[C@H](O)[C@@H](F)C5)c4)c3O)cc2Cl)c1=O [Example 786, 1-(3-chloro-5′-fluoro-3′-(2-((3S,4S)-3-fluoro-4-hydroxypyrrolidin-1-yl)pyridin-4-yl)-2′-hydroxy-[1,1′-biphenyl]-4-yl)-3-methyl-1H-imidazol-2(3H)-one] | 8.00 to 9.00 | 30 to 300 | – | –
8 | CC(=O)Nc1ncc(-c2cc(F)cc(-c3ccc(N4CCN(C)C4=O)c(Cl)c3)c2O)cc1N1CCNCC1 [Example 389, N-(5-(3′-chloro-5-fluoro-2-hydroxy-4′-(3-methyl-2-oxoimidazolidin-1-yl)-[1,1′-biphenyl]-3-yl)-3-(piperazin-1-yl)pyridin-2-yl)acetamide] | 8.00 to 9.00 | 30 to 300 | – | –
9 | Cc1cc(-c2ccc(-n3ccn(C)c3=O)c(Cl)c2)c(O)c(-c2cc(N3CCN(C(C)(C)C)CC3)c(=O)n(C)c2)n1 [Example 1011, 5′-(4-(tert-butyl)piperazin-1-yl)-4-(3-chloro-4-(3-methyl-2-oxo-2,3-dihydro-1H-imidazol-1-yl)phenyl)-3-hydroxy-1′,6-dimethyl-[2,3′-bipyridin]-6′(1′H)-one] | – | – | 7.00 to 8.00 | 0.3 to 30
10 | CN1CCC2CN(c3cc(-c4cc(F)cc(-c5ccc(-n6ccn(C)c6=O)c(Cl)c5)c4O)ccn3)CC21 (centres unmarked) [Example 658, 1-(3-chloro-5′-fluoro-2′-hydroxy-3′-(2-(1-methylhexahydropyrrolo[3,4-b]pyrrol-5(1H)-yl)pyridin-4-yl)-[1,1′-biphenyl]-4-yl)-3-methyl-1H-imidazol-2(3H)-one] | 9.00 to 11.00 | 0.3 to 30 | – | –
